Columns and labels:
[1] = test system: Vero cells; assay: Cytotoxicity test on Vero cells; assay type: cell-based; conditions: Chlorocebus sabaeus, 48 h + 24 h resazurin, read-out: Toxicity IC50 Vero cell
[2] = test system: T. cruzi epimastigotes, Arequipa strain; assay: Screening against extracellular epimastigotes, Arequipa strain; assay type: cell-based, Trypanosoma cruzi; conditions: for IC50: Trypanosoma cruzi, 48 h + 24 h resazurin, read-out: Activity IC50, epimastigote form, Arequipa strain; for Selectivity index (SI), epimastigotes, Arequipa strain: IC50 Vero cells/IC50 epimastigotes
[3] = test system: T. cruzi epimastigotes, SN3 strain; assay: Screening against extracellular epimastigotes, SN3 strain; assay type: cell-based, Trypanosoma cruzi; conditions: for IC50: Trypanosoma cruzi, 48 h + 24 h resazurin, read-out: Activity IC50, epimastigote form, SN3 strain; for Selectivity index (SI), epimastigotes, SN3 strain: IC50 Vero cells/IC50 epimastigotes
[4] = test system: T. cruzi epimastigotes, Tulahuen strain; assay: Screening against extracellular epimastigotes, Tulahuen strain; assay type: cell-based, Trypanosoma cruzi; conditions: for IC50: Trypanosoma cruzi, TULAHUEN, 48 h + 24 h resazurin, read-out: Activity IC50, epimastigote form, Tulahuen strain; for Selectivity index (SI), epimastigotes, Tulahuen strain: IC50 Vero cells/IC50 epimastigotes

| Compound | CC50 [1] | IC50 [2] | IC50 [3] | IC50 [4] | Selectivity index (SI), epimastigotes, Arequipa strain [2] | Selectivity index (SI), epimastigotes, SN3 strain [3] | Selectivity index (SI), epimastigotes, Tulahuen strain [4] |
| --- | --- | --- | --- | --- | --- | --- | --- |
| CSc1ccc(C(=O)Nc2ccc([Se][Se]c3ccc(NC(=O)c4ccc(SC)cc4)cc3)cc2)cc1 [Compound 14] | 407 ± 17.8 µM | > 50 µM | > 50 µM | > 50 µM | – | – | – |
| O=P(Nc1ccc([Se][Se]c2ccc(NP(=O)(Oc3ccccc3)Oc3ccccc3)cc2)cc1)(Oc1ccccc1)Oc1ccccc1 [Compound 16] | 147 ± 11.4 µM | > 50 µM | > 50 µM | > 50 µM | – | – | – |
| Cc1ccc(OP(=O)(Nc2ccc([Se][Se]c3ccc(NP(=O)(Oc4ccc(C)cc4)Oc4ccc(C)cc4)cc3)cc2)Oc2ccc(C)cc2)cc1 [Compound 20] | < 50 µM | > 50 µM | > 50 µM | > 50 µM | – | – | – |
| Cc1ccc(OP(=O)(Nc2ccc([Se]C#N)cc2)Oc2ccc(C)cc2)cc1 [Compound 41] | < 50 µM | > 50 µM | 43.2 ± 5.3 µM | 29.9 ± 2.1 µM | – | – | – |
| CCOP(=S)(Nc1ccc([Se][Se]c2ccc(NP(=S)(OCC)OCC)cc2)cc1)OCC [Compound 18] | 182 ± 14.3 µM | > 50 µM | > 50 µM | > 50 µM | – | – | – |
| N#C[Se]c1ccc(NC(=O)c2ccc(C#N)cc2)cc1 [Compound 24] | 70.8 ± 5.4 µM | 30.5 ± 1.9 µM | 9.8 ± 1.2 µM | 15.4 ± 2.1 µM | 2 | 7 | 5 |
| N#Cc1ccc(C(=O)Nc2ccc([Se][Se]c3ccc(NC(=O)c4ccc(C#N)cc4)cc3)cc2)cc1 [Compound 4] | 280 ± 34.2 µM | > 50 µM | > 50 µM | > 50 µM | – | – | – |
| O=C(Nc1ccc([Se][Se]c2ccc(NC(=O)c3ccc([N+](=O)[O-])cc3)cc2)cc1)c1ccc([N+](=O)[O-])cc1 [Compound 5] | 552 ± 43.1 µM | > 50 µM | > 50 µM | > 50 µM | – | – | – |
| O=C(Nc1ccc([Se][Se]c2ccc(NC(=O)c3ccc(Cl)cc3)cc2)cc1)c1ccc(Cl)cc1 [Compound 2] | 622 ± 41.9 µM | > 50 µM | > 50 µM | > 50 µM | – | – | – |
| COc1ccc(C(=O)Nc2ccc([Se]C#N)cc2)cc1 [Compound 23] | < 50 µM | 34.5 ± 2.7 µM | 4.1 ± 0.4 µM | 17.6 ± 2.5 µM | – | – | – |
| N#C[Se]c1ccc(NP(=O)(Nc2ccccc2)Oc2ccccc2)cc1 (stereo not shown) [Compound 40] | < 50 µM | 41.1 ± 4.4 µM | > 50 µM | > 50 µM | – | – | – |
| N#C[Se]c1ccc(NC(=O)/C=C/c2ccccc2)cc1 [Compound 32] | < 50 µM | 7.4 ± 0.9 µM | 4.8 ± 0.8 µM | 7.9 ± 0.5 µM | – | – | – |
| N#C[Se]c1ccc(NC(=O)c2ccc(Cl)cc2)cc1 [Compound 22] | < 50 µM | 36.2 ± 2.8 µM | 5.4 ± 0.7 µM | 19.4 ± 1.4 µM | – | – | – |
| Cc1ccc(C(=O)Nc2ccc([Se]C#N)cc2)cc1 [Compound 27] | < 50 µM | 4.5 ± 0.7 µM | 4.2 ± 0.3 µM | 4.9 ± 0.3 µM | – | – | – |
| N#C[Se]c1ccc(NP(=O)(Oc2ccccc2)Oc2ccccc2)cc1 [Compound 37] | < 50 µM | 20.1 ± 2.8 µM | 30.3 ± 3.2 µM | 22.3 ± 3 µM | – | – | – |
| O=C(Nc1ccc([Se][Se]c2ccc(NC(=O)c3cccs3)cc2)cc1)c1cccs1 [Compound 9] | < 50 µM | > 50 µM | 48 ± 6.4 µM | > 50 µM | – | – | – |
| COP(=O)(Nc1ccc([Se][Se]c2ccc(NP(=O)(OC)OC)cc2)cc1)OC [Compound 15] | < 50 µM | 19.6 ± 2 µM | 12.5 ± 1.1 µM | 14.4 ± 1.7 µM | – | – | – |
| COP(=O)(Nc1ccc([Se]C#N)cc1)OC [Compound 36] | < 50 µM | 28.1 ± 3.2 µM | 4.3 ± 0.7 µM | 18.4 ± 1.4 µM | – | – | – |
| N#C[Se]c1ccc(NC(=O)c2ccno2)cc1 [Compound 30] | 86 ± 6.7 µM | 9.8 ± 1 µM | 24.1 ± 2.3 µM | 15.3 ± 1.1 µM | 9 | 4 | 6 |
